Tests used:
BAK = target: T1, BAK (Mus musculus, UniProt O08734); assay: Permeabilization of isolated mitochondria, Smac-mCherry release (BIM activated BAK); format: biochemical; conditions: concentrations up to 60 uM
T1 construct: endogenous in cells; host or cells: heavy membranes (mitochondria) of BAX-/- baby mouse kidney cells expressing Smac-mCherry
T1 sequence (O08734 2-209 limits assumed): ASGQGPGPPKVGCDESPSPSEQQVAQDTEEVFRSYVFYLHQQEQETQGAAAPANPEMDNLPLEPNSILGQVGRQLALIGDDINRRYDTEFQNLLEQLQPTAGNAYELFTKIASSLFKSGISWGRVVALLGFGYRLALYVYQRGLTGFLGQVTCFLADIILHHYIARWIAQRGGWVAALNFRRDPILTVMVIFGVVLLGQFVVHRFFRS

[1] = system: Baby Mouse Kidney (BMK) cells; assay: Actinomycin D / spontaneous cell death assay in BMK cells; format: cell-based; conditions: for tolerability by the cells: BMKwt cells; for effect on spontaneous cell death / effect on actinomycin D induced cell death: BMKwt; for effect on spontaneous cell death: 0 mM actinomycin D; for effect on actinomycin D induced cell death: 3.125, 6.25, 12.5 nM actinomycin D
Description: Baby Mouse Kidney (BMK) cells were from (Mathew et al., 2008). BMK double knockout, SMAC-mCherry, and BAX^−/− cell lines were generated in house as described (Niu et al., 2017). BMK lines were grown in DMEM supplemented with 10% Fetal Bovine Serum and 1×MEM non-essential amino acids in a humidified incubator at 37° C. and 5% CO2.
For cell death assays with actinomycin D, 3000 WT or DKO BMK cells were cultured in a 384 well plate and incubated overnight. The next morning, cells were treated with actinomycin D for 2 hours before the addition of BAX inhibitor. Actinomycin D and BAX inhibitor (where relevant) were then incubated for 24 hours before staining with Hoechst, AnnexinV-Alexa488, and TMRE for 30 minutes. Cells were imaged by confocal microscopy (Opera Phenix—PerkinElmer) and subsequently analyzed with Harmony (PerkinElmer) software. Cell death was scored by three criteria: the loss of TMRE signal, the appearance of AnnexinV-Alexa488 signal, and nuclear shrinkage visualized by Hoechst.

BAX = BAX (Homo sapiens, UniProt Q07812); assay: Permeabilization of isolated mitochondria, Smac-mCherry release (cBID activated BAX); format: biochemical, mouse; parameters: made in house; host or cells: Escherichia coli BL21-AI; conditions: concentrations up to 60 uM
Description: Animal breeding and handling was performed in accordance with local regulations after approval by the Animal Care Committee at Sunnybrook Research Institute, Toronto. The isolation of mouse-liver mitochondria, and use with Bcl-2 family proteins to measure activity and protein-protein interactions was previously described in detail (Pogmore et al., 2016). In mouse liver, BAX is either cytoplasmic or loosely bound to mitochondria. Therefore, BAX is not present in isolated mitochondria. For this reason, when mitochondria are isolated from liver from BAK−/− mice they contain neither BAX or BAK. […] The supernatant was discarded, and the remaining pellet is resuspended in regeneration buffer (300 mM Trehalose, 10 mM HEPES-KOH pH 7.7, 80 mM KCl, 1 mM EGTA, 1 mM EDTA, 0.1% BSA, 5 mM succinate, 2 mM ATP, 10 μM phosphocreatine, and 10 μg/mL creatine kinase) at a protein concentration of 1 mg/mL, (determined by Bradford assay) for immediate use as the source of membranes for FRET measurements. […]
For BAX^−/−/BAK^−/−BMK SMAC-mCherry mitochondria, 2 nM cBID and 20 nM BAX was used to fully permeabilize the mitochondria. […] The percentage of SMAC-mCherry release was determined by fluorometric analysis of the supernatant and pellet fractions by measuring the fluorescence intensity (F) of mCherry (excitation 580, emission 610 in a Tecan M1000).

Chain of BAX (Q07812 whole entry): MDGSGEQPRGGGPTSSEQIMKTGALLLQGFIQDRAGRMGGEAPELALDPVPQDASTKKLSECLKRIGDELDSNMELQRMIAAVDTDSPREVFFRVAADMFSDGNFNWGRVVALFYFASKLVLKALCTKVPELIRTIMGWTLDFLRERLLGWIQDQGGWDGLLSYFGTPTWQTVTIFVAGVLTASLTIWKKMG

Structure (SMILES) | inhibition of BAK mediated permeabilization of mitochondria (BAK) | inhibition of actinomycin D mediated cell death in cells expressing either BAX or BAK ([1]; 1.25 or 2.5 uM compound, actinomycin D 25 nM (wild-type), 100 nM (knock-out)) | tolerability by the cells [1] | effect on spontaneous cell death [1] | effect on actinomycin D induced cell death [1] | inhibition of BAX mediated permeabilization of mitochondria (BAX) | spontaneous cell death in culture ([1]; BMK-wt, 0 nM actinomycin D, from ~30% without compound)
COc1cc2ccnc(Nc3ccc(F)c(Cl)c3)c2cc1NC(=O)CCCN1CCCCC1 [Compound I-1, N-(1-((3-chloro-4-fluorophenyl)amino)-6-methoxyisoquinolin-7-yl)-4-(piperidin-1-yl)butanamide] | equally effective inhibitors | most effective inhibitor | well-tolerated | reduced the amount of spontaneous cell death | reduced cell death | equally effective inhibitors | –
COc1cc2ncnc(Nc3ccc(F)c(Cl)c3)c2cc1NC(=O)/C=C/CN1CCCCC1 [Dacomitinib, reference compound] | equally effective inhibitors | – | well-tolerated | reduced the amount of spontaneous cell death | reduced cell death | equally effective inhibitors | < 10%
